Patent publication US20090005385A1, “Treatment or Prevention of Cancer or Cardiovascular Disease with Methenyltetrahydrofolate Synthetases” (CORNELL RESEARCH FOUNDATION, INC., priority 2004, published 2009)

Legend:
[1] = test system: cell cultures; conditions: substrate for FPGS; cited from earlier work
[2] = target: mouse enzyme GARFT (Mus musculus, UniProt Q64737); conditions: read-out: Ki mouse GARFT; cited from earlier work
[3] = test system: MCF-7 cells; assay: Radiolabeled folate accumulation in cultured cells treated with catecholamines; format: cell-based, human; conditions: 12 h, 25 nM (6S)-[^3H]-5-formylTHF, 0-150 μM catecholamine
Procedure: (§1) Cell monolayers at 70% confluence in 6-well plates were labeled for 12 h in defined αMEM lacking folate and glycine, but supplemented with 25 nM (6S)-[^3H]5-formylTHF and 0, 25 μM, 50 μM, 75 μM, 100 μM, or 150 μM NADA, dopamine, or epinephrine. Cells were harvested by washing with 5 mL PBS, trypsinized, and pelleted by centrifugation and viable cells (determined by their ability to exclude trypan blue) were quantified. The cell pellets were lysed with 0.2 M ammonium hydroxide, and the intracellular tritium was quantified using a Beckman LS 8100 liquid scintillation counter.
Because the addition of NADA to the chase medium increased folate turnover rates in MCF-7 cells, the effects of various catecholamines on [^3H]folate accumulation was investigated. Cells were cultured for 12 h in defined αMEM medium containing 25 nM (6S)-[^3H]-5-formylTHF and various concentrations of NADA, dopamine, and epinephrine, and cellular [^3H]folate content was determined.

[4] = test system: MCF-7 cells; assay: Cell viability (trypan blue) after catecholamine treatment; format: cell-based, human; conditions: 12 h, various concentrations
Procedure: FIG. 12A-B show the effect of NADA, dopamine, and epinephrine on folate accumulation and cell viability in MCF-7 cells. MCF-7 cells were incubated with 25.0 nM (6S)-[^3H]5-formylTHF and various concentrations of NADA, dopamine, and epinephrine for 12 h, then viable cells were quantified using trypan blue staining. […] All values were normalized to cpm for untreated cells, and untreated cells were given an arbitrary value of 100%. […] Cell viability is expressed as the percent of viable cells divided by the total number of cells. Total [^3H]folate compounds were quantified in cell lysates by liquid scintillation. All values represent quadruplicate measures, and error bars are standard deviations of the mean.
as §1

[5] = test system: MCF-7 cells; assay: Folate turnover in cultured cells (pulse-chase); format: cell-based, human; conditions: 20 μM in chase medium
Procedure: Cell monolayers at 75% confluence were washed with PBS, then labeled for 12 h in defined αMEM lacking folate and glycine and supplemented with 25 nM (6S)-[^3H]5-formylTHF. For the chase, cell monolayers were washed with 10 ml of PBS, trypsinized, and pelleted by centrifugation. The cells were seeded in triplicate (1×10^6 cells) into 100 mm culture plates containing 10 ml of defined αMEM supplemented with 2 μM folic acid. Catecholamines (20 μM dopamine, NADA, and L-dopa) were prepared freshly and added to the chase media prior to the addition of labeled cells. Cells were harvested at defined time points, the medium was removed and the tritium in the medium was quantified. The cell monolayers were washed with PBS and lysed with 0.2 M ammonium hydroxide. Tritium remaining in the cells was quantified using a Beckman LS 8100 liquid scintillation counter.
Catecholamine availability may be rate limiting for MTHFS-catalyzed folate catabolism in MCF-7 cells. The effects of exogenous catecholamines on folate turnover rates were determined using pulse-chase analyses in MCF-7 cells. Folate turnover in MCF-7 cells labeled with [^3H]-5-formylTHF is biphasic, with an initial rapid phase of turnover followed by a slower phase (Anguera et al., J. Biol. Chem. 278:29856-29862 (2003), which is hereby incorporated by reference in its entirety). Addition of 20 μM NADA to the chase medium increased the magnitude of the rapid phase of folate turnover by 12% compared to untreated cells (FIG. 11A). […] To distinguish between these two mechanisms, 20 μM dopamine and L-dopa were added to the chase medium. Dopamine is the precursor of NADA, and both dopamine and L-dopa can function as oxidants following oxidation of their diphenolic ring generating dopamine-quinone or dopa-quinone (Rescigno et al., Biochemical Pharmacology 56:1089-1096 (1998); Graham, D. G. Mol. Pharmacol. 14:633-643 (1978), which are hereby incorporated by reference in their entirety). […] The addition of dopamine to the culture medium increased the magnitude of the rapid phase of folate turnover by only 4% relative to untreated cells (FIG. 11A). The minor effect of dopamine on folate turnover may reflect N-acetyltransferase-mediated dopamine acetylation that generating NADA. […] In summary, the pulse chase experiments indicate that NADA may be limiting for in vivo folate catabolism, and NADA may function specifically as the electron acceptor molecule for MTHFS-mediated folate catabolism.

[6] = test system: MTHFS; assay: Inhibition of MTHFS-catalyzed conversion of 5-formylTHF to 5,10-methenylTHF (spectrophotometric assay); format: biochemical
Procedure: Tissue samples were sonicated four times for 15 s in a buffer containing 100 mM HEPES pH 7.0, 100 mM sodium chloride, 5 mM EDTA, 1% Tween-20. The solution was clarified by centrifugation. MTHFS activity was determined using a spectrophotometer by monitoring the appearance of 5,10-methenyltetrahydrofolate, which has an absorbance maximum at 355 nm. For a typical assay, 50 μL of clarified tissue supernatant was added to a quartz cuvette containing 100 μM (6S)-5-formylTHF, 1 mM Mg-ATP and 100 mM MES, pH 6.0 and the rate of 5,10-methenylTHF formation was quantified. Activity measurements were normalized to total protein that was quantified using the Lowry-Bensadoun method (Bensadoun et al., “Assay of Proteins in the Presence of Interfering Materials,” Anal Biochem 70:241-250 (1976), which is hereby incorporated by reference in its entirety).
The UV spectrum of purified rabbit liver MTHFS differs from the spectrum of recombinant mouse MTHFS (FIG. 4). Therefore, it was investigated whether rabbit liver MTHFS could be reconstituted with NADA resulting in a change in the UV spectrum of the protein. […]

[7] = target: T1, recombinant mouse MTHFS protein (Mus musculus, UniProt Q9D110); conditions: equilibrium binding
T1 sequence (Q9D110 1-203): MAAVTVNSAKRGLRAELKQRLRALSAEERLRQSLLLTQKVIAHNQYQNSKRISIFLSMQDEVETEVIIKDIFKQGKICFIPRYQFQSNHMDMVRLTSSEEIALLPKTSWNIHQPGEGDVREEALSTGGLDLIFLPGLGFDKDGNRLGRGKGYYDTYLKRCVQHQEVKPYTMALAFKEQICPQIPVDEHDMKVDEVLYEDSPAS

Chain of mouse enzyme GARFT (Q64737 whole entry): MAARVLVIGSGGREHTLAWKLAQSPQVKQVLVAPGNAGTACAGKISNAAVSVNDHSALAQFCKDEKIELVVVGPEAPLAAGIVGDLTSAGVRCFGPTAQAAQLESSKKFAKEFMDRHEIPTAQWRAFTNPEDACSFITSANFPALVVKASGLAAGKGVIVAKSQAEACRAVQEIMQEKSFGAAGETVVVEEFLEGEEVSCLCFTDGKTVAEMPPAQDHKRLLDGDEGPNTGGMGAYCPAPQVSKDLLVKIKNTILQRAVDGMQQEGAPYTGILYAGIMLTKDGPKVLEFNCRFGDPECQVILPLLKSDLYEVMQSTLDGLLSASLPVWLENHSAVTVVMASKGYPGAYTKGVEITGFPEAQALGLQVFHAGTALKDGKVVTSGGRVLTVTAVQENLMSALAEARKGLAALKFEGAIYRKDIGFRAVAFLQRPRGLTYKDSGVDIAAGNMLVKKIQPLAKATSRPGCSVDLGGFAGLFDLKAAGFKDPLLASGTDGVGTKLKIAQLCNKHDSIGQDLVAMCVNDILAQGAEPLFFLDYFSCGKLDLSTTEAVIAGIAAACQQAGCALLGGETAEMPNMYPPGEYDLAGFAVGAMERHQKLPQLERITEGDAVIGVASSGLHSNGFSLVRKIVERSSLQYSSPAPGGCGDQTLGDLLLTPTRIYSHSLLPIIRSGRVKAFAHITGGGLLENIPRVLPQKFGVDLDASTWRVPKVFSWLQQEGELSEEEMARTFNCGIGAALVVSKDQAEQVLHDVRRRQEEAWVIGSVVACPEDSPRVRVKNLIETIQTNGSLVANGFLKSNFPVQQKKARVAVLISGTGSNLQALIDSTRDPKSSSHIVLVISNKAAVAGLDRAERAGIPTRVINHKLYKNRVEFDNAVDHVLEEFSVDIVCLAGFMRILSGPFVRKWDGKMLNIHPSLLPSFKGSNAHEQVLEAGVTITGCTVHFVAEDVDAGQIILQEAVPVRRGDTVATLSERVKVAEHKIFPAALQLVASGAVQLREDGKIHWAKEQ

## Nc1nc(N)c(CCCC(C=O)c2ccc(C(=O)N[C@@H](CCC(=O)O)C(=O)O)cc2)c(=O)[nH]1 (stereo partly shown) [10-formyl-DDACTHF, 10-formyl-5,10-dideaza-acyclicTHF]
[1]
  accumulation in cell cultures: over 100 fold

## Nc1nc2c(c(=O)[nH]1)C[C@@H](CCc1ccc(C(=O)N[C@@H](CCC(=O)O)C(=O)O)cc1)CN2 [DDATHF, 5,10-dideazatetrahydrofolate]
[2]
  Ki: 6 nM

## CC(=O)NCCc1ccc(O)c(O)c1 [NADA, N-acetyldopamine]
[3]
  [^3H]folate accumulation: decreased [^3H]folate accumulation in a dose-dependent manner
[4]
  cell viability: NADA-induced cell death
[5]
  increase in magnitude of the rapid phase of folate turnover compared to untreated cells: 12%
  slow phase of folate turnover relative to untreated cells: did not change
[6]
  inhibition of MTHFS-catalyzed conversion of 5-formylTHF to 5,10-methenylTHF: did not inhibit

## NCCc1ccc(O)c(O)c1 [dopamine]
[7]
  binding to recombinant mouse MTHFS protein: neither dopamine nor oxidized dopamine bind
[3]
  [^3H]folate accumulation: Neither the addition of dopamine nor epinephrine to culture media impaired [^3H]folate accumulation
[5]
  increase in magnitude of the rapid phase of folate turnover compared to untreated cells: 4%
